What was measured:
CYP2C9 = molecular target: T1, CYP2C9 (Homo sapiens, UniProt P11712); assay: CYP inhibition assay in human liver microsome, CYP2C9; format: in vitro ADME; settings: human, human liver microsomes, probe diclofenac 5 μM, substrate diclofenac 5 μM, first value of 2C9/2D6/3A4
T1 construct: tissue BD-Gentest 452117; host or cells: human liver microsomes
Protocol: (§1) This is a high throughput screening assay used for assessment of reversible inhibition of CYP2C9, CYP2D6, and CYP3A4 activity of test compounds in human liver microsome (HLM) in early discovery stage.
(§2) 10 mM DMSO stock solutions of test compounds were diluted in DMSO to generate 2 mM intermediate stock solution. 250 nL, of intermediate stock solution were transferred in duplicate into 3 separate 384 well microtitre plates (assay-ready plates). A mixture of HLM and each substrate was made up. 45 μL of HLM substrate mix was then transferred to each well of an assay ready plate and mixed. The negative (solvent) and positive controls (standard inhibitor for each CYP) were included in each assay ready plate. The assay ready plate was warmed to 37° C. in an incubator over 10 minutes. 5 μL pre-warmed NADPH regenerating system was added to each incubation well to start the reaction. Final incubation volume was 50 μL. The assay plate then was placed back in the 37° C. incubator. After incubation (10 minutes for CYP2D6) for 5 minutes, incubates were quenched by addition of 50 μL 100% acetonitrile containing internal standards (400 ng/mL 13C6-4′-OH-Diclofenac, 20 ng/mL D3-Dextrorphan and 20 ng/mL D4-1′OH-Midazolam). The supernatants were collected for RapidFire/MS/MS analysis.
(§3) RapidFire online solid phase extraction/sample injection system (Agilent) coupled with API4000 triple quadrupole mass spectrometer (AB Sciex) were used for sample analysis. The mobile phase composed of acetonitrile and water supplemented with 0.1% formic acid. A C4 solid phase extraction cartridge is used for sample separation. MS detection is achieved in positive ion MRM mode.
(§4) Peak areas for substrate, metabolite and internal standard are determined using the RapidFire integrator software (version 3.6.12009.12296). Peak area ratios (PAR) of metabolite and internal standard (stable-labelled metabolite) are then calculated. The measurement window for each experiment is then defined:
(§5) PAR (0% activity)=average PAR for all incubations containing concentrated inhibitor; Par (100% activity)=average PAR for all incubations containing no inhibitor (DMSO controls); % Activity (test inhibitor)=[PAR (test inhibitor)−PAR (0% activity)]/[PAR (100% activity)−PAR (0% activity)]; % Inhibition (test inhibitor)=100-% Activity (test inhibitor).

hTLR9 = molecular target: T2, hTLR9 (Homo sapiens, UniProt Q9NR96); set-up: host or cells: HEK; settings: data disclosed in US20150105370; read-out: HEK/hTLR9 IC50; cited from earlier work
T2 sequence (Q9NR96 26-1032): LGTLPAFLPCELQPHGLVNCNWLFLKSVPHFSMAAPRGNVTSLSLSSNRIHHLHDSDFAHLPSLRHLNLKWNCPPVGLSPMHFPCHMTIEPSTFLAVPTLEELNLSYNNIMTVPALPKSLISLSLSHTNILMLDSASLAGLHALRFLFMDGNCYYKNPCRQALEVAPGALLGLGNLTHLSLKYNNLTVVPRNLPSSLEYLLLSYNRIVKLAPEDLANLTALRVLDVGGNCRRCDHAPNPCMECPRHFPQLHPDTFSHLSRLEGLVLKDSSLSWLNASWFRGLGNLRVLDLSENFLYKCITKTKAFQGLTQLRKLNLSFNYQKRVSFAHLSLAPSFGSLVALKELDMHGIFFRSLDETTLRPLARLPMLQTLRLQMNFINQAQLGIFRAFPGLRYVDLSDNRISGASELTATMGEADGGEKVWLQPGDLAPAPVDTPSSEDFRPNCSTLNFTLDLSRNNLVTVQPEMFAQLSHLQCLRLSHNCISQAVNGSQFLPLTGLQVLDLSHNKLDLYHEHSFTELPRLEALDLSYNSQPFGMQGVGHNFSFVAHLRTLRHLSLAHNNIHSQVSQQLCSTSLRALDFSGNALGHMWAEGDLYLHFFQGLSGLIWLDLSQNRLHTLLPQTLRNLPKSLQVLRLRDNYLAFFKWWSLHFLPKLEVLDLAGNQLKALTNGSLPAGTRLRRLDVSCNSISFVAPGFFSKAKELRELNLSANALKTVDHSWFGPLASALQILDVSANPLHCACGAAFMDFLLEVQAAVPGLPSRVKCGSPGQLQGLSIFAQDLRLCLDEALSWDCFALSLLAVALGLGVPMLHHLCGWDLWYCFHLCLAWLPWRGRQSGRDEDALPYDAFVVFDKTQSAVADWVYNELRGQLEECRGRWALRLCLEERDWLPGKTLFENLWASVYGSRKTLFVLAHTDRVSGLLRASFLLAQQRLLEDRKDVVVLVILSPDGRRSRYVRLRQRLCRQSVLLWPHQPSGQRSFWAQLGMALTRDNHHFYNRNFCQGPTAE

hERG channel = molecular target: T3, hERG channel (Homo sapiens, UniProt Q12809); assay: hERG channel inhibition assay (patch-clamp, CHOhERG cells); format: cell-based
T3 construct: expressed in transfected cells; host or cells: CHO (Chinese hamster ovary)
Protocol: hERG Channel Inhibition Assay:
The hERG K^+ channels were cloned in humans and stably expressed in a CHO (Chinese hamster ovary) cell line. CHOhERG cells were used for patch-clamp (voltage-clamp, whole-cell) experiments. Cells were stimulated by a voltage pattern to activate hERG channels and conduct IKhERG currents (rapid delayed outward rectifier potassium current of the hERG channel). After the cells were stabilized for a few minutes, the amplitude and kinetics of IKhERG were recorded at a stimulation frequency of 0.1 Hz, (6 bpm). Thereafter, the test compound was added to the preparation at increasing concentrations. For each concentration, an attempt was made to reach a steady-state effect, usually, this was achieved within 3-10 min at which time the next highest concentration was applied. The amplitude and kinetics of IKhERG are recorded in each concentration of the drug which were compared to the control values (taken as 100%). (references: Redfern W S, Carlsson L, Davis A S, Lynch W G, MacKenzie I, Palethorpe S, Siegl P K, Strang I, Sullivan A T, Wallis R, Camm A J, Hammond T G. 2003; Relationships between preclinical cardiac electrophysiology, clinical QT interval prolongation and torsade de pointes for a broad range of drugs: evidence for a provisional safety margin in drug development. Cardiovasc. Res. 58:32-45, Sanguinetti M C, Tristani-Firouzi M. 2006; hERG potassium channels and cardiac arrhythmia. Nature 440:463-469, Webster R, Leishman D, Walker D. 2002; Towards a drug concentration effect relationship for QT prolongation and torsades de pointes. Curr. Opin. Drug Discov. Devel. 5:116-26).

CYP3A4 = molecular target: T4, CYP3A4 (Homo sapiens, UniProt P08684); assay: CYP inhibition assay in human liver microsome, CYP3A4; format: in vitro ADME; settings: human, human liver microsomes, probe midazolam 5 μM, substrate midazolam 5 μM, third value of 2C9/2D6/3A4
T4 construct: tissue BD-Gentest 452117; host or cells: human liver microsomes
Protocol: as §1, §2, §3, §4, §5

T3 sequence (Q12809 whole entry): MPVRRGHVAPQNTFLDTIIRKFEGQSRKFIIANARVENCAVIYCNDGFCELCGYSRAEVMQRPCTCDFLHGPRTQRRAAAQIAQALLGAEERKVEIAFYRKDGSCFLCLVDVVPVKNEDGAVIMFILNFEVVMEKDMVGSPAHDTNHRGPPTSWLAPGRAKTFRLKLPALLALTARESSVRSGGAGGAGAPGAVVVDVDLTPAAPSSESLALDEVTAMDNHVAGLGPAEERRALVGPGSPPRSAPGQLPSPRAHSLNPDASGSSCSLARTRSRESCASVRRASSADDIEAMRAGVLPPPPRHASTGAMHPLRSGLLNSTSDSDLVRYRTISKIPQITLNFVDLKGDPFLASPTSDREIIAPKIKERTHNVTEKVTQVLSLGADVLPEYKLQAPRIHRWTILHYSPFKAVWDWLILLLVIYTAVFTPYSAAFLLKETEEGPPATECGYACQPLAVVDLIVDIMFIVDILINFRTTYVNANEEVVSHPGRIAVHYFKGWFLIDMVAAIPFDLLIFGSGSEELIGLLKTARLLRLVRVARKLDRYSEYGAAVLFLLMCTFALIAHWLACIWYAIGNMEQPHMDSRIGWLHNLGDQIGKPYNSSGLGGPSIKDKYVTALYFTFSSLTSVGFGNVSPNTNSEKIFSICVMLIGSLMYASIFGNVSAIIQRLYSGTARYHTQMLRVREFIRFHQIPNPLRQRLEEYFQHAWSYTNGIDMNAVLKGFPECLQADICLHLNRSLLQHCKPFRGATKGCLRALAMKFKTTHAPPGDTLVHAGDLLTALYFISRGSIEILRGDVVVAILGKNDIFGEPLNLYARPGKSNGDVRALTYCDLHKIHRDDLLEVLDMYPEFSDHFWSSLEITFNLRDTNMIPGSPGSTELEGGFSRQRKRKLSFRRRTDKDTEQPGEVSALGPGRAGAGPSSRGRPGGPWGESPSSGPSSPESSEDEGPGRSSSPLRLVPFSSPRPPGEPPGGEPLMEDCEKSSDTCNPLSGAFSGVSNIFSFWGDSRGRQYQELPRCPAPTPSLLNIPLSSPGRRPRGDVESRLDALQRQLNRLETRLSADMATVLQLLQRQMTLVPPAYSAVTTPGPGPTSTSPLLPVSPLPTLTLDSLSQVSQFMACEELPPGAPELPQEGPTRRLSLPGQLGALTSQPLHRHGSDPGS
T4 sequence (P08684 whole entry): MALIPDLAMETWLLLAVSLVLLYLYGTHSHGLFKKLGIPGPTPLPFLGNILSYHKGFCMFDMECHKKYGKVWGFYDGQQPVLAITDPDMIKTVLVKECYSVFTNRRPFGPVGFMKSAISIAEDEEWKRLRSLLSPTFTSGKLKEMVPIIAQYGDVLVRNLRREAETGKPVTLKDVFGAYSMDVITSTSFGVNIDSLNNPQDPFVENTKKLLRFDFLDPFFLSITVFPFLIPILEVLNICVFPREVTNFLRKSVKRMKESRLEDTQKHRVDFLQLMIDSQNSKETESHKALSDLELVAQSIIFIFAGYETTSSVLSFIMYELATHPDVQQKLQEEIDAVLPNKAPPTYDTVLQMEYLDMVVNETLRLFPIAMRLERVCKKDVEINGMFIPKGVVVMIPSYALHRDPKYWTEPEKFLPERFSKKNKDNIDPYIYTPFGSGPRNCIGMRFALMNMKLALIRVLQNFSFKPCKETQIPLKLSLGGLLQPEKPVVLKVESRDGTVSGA
T1 sequence (P11712 whole entry): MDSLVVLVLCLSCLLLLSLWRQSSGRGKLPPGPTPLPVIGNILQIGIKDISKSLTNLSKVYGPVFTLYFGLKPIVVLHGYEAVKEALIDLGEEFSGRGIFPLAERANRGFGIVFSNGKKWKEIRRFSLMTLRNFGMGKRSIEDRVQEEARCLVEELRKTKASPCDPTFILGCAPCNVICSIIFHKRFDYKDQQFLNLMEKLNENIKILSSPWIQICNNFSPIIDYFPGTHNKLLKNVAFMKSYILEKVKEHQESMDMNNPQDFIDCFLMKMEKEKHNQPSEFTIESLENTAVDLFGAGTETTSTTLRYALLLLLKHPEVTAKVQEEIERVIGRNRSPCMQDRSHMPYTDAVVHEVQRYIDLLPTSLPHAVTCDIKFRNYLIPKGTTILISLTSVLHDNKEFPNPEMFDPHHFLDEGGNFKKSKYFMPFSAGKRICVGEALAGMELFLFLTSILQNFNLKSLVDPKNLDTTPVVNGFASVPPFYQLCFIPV

C[C@@H]1CN(c2ccc(C#N)c3ncccc23)C[C@H](CN2CCN(c3ccncc3)CC2)O1 [ER-888286, reference compound]
inhibition at 5 min, 10 µM (CYP2C9): 29.5%
IC50 (hTLR9): > 2000 nM
safety window (hERG IC20/TLR7/8/9 IC50) compared to the compounds of this invention (hERG channel; result in words): much narrower safety window
hERG IC20/TLR7 IC50 (hERG channel; safety ratio): 0.3
hERG IC20/TLR9 IC50 (hERG channel; safety ratio): 0.2
inhibition at 5 min, 10 µM (CYP3A4): 5.5%
